Test results reported in patent US20030181354A1, “Method for central nervous system targeting through the ocular route of drug delivery” (priority 2002, published 2003).

How the values were obtained:
[1] = system: migraine related symptoms; conditions: 0.2% topical to the eye, as additional antiglaucoma agent
Source text: A patient with a history of migraine, and both eyes primary open angle glaucoma.
A patient with a history of migraine, and right eye primary open angle glaucoma.

[2] = Experimental: A study was conducted to examine for the first time the neuro-ocular tissue distribution of brimonidine following one single 50 μl instillation of 3H-Alphagan aqueous solution (0.2%) into the albino rabbit eye. Both eyes and the brain were dissected. Both side specimens of aqueous humor, cornea, iris, lens, vitreous, conjunctiva, sclera, ciliary body, choroid, retina, optic nerve, optic tract, olfactory bulb, as well as corpus callosum and blood samples were collected. The corpus callosum was chosen as an indicator of general availability of the drug in the brain. The olfactory bulbs were included to rule out ocular-brain drug delivery through the nasal cavity.
In the method employed, following single instillation of 50 μl of [3H]-radio labeled brimonidine tartrate in the cul-de-sac of the right eye, male albino rabbits (2-2.5 kg) were sacrificed at the selected time point (15, 30 min., 1, 2. 3, and 4 h). Both eyes and the brain were dissected. Both sides specimens of aqueous humor, cornea, iris, lens, vitreous, conjunctiva, sclera, ciliary body, choroid, retina, optic nerve, optic tract, as well as chiasm, cerebral and blood samples were weighted before combustion in Packard sample Oxidizer (model 307), and radioactive [3H] brimonidine liquid scintillation counting.

[3] = reported; cited from earlier work
[4] = system: memory; conditions: very small doses, monkeys; cited from earlier work
[5] = system: alpha 2-adrenoceptor regulated serotonin release; conditions: rat hippocampus in vivo; cited from earlier work

tartrate of 5-bromo-6-(2-imidozolin-2-ylamino) quinoxaline [brimonidine tartrate]
patient-reported effect on migraine related symptoms [1]: substantial relief of migraine related symptoms

Brc1c(NC2=NCCN2)ccc2nccnc12 [brimonidine, 5-bromo-6-(2-imidozolin-2-ylamino) quinoxaline]
contralateral eye choroid peak higher than in the blood ([2]; 15 min, P<0.001): 99.5 folds
contralateral eye ciliary body peak higher than in the blood ([2]; 15 min, P<0.001): 76.5 folds
corpus callosum AUC higher than in the left optic nerve ([2]; P<0.01): 118%
corpus callosum AUC higher than in the right optic nerve ([2]; P<0.01): 177%
corpus callosum AUC higher than in the right optic tract ([2]; P<0.05): 123%
corpus callosum AUC higher than in the left optic tract ([2]; P<0.10): 111%
corpus callosum 3H-brimonidine concentration ([2]; at 5 min): 993.79 ± 48.43 ng/g
corpus callosum concentration higher than in the right optic nerve ([2]; at 5 min, P<0.001): 763%
brimonidine concentration in the corpus callosum higher than in the blood ([2]; at 5 minutes, P<0.001): 148 folds
drug concentration detected in the blood samples ([2]; blood, after ocular instillation): extremely low
time of brimonidine delivery to the ciliary body of the contralateral eye ([2]; contralateral eye): < 5 min
ciliary body brimonidine level ([2]; contralateral eye, 5 minutes post drug application): 444.28 ± 86.38 ng/g
ciliary body brimonidine level, peak ([2]; contralateral eye, 15 minutes): 619.74 ± 36.35 ng/g
ciliary body AUC higher than in the conjunctiva ([2]; contralateral eye, P<0.001): 340%
ciliary body AUC higher than in the retina ([2]; contralateral eye, P<0.001): 322%
choroid AUC higher than in the conjunctiva ([2]; contralateral eye, P<0.01): 290%
choroid AUC higher than in the retina ([2]; contralateral eye, P<0.01): 275%
drug levels observed in the olfactory bulbs ([2]; olfactory bulbs): low
Vitreal AUC as % of aqueous humor AUC ([2]; treated eye, P<0.01): 8.85%
Choroidal brimonidine AUC higher than retinal AUC ([2]; treated eye, p<0.001): 196%
Retinal AUC higher than vitreous AUC ([2]; treated eye, p<0.001): 636%
Vitreal AUC as % of retinal AUC ([2]; treated eye, p<0.001): 15.7%
brimonidine AUC corpus callosum higher than blood ([2]; whole study period, P<0.001): 40 folds
systemic half life [3]: 3 h
effect on memory [4]: reliable but modest improvement of memory
effect on release of serotonin (5-HT) [5]: inhibitory action
